What was measured:
RSV A2 strain = test: Assessment of RSV induced CPE in HEp2 cells (RSV A2 strain); type: cell-based; details: human respiratory syncytial virus, HEp2 cells; for IC50: HEp-2, 120 h, 1 MOI, 5 days, read-out: RSV A2 CPE IC50; for inhibition at 0.01 µg/mL / inhibition at 0.1 µg/mL: HEp-2; for inhibition at 0.01 µg/mL: Inhibition (%) at 0.01 μg/mL; for inhibition at 0.1 µg/mL: Inhibition (%) at 0.1 μg/mL, read-out: RSV A2 CPE % Inhibition
Outline: (§1)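 HEp2 cells were infected at MOI 1 with RSV A2 or RSV B Washington, with compound added at the same time (0.5% DMSO final). Incubation was 5 days for A2 and 6 days for B, then viability was read by resazurin fluorescence (545/590 nm) after 6 h. IC50, IC75 and IC90 came from concentration-response curves.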

RSV B Washington strain = test: Assessment of RSV induced CPE in HEp2 cells (RSV B Washington strain); type: cell-based; details: human respiratory syncytial virus, HEp2 cells; for IC50: HEp-2, 144 h, 1 MOI, 6 days, read-out: RSV B CPE IC50; for inhibition at 1 µg/mL / inhibition at 0.1 µg/mL: HEp-2; for inhibition at 1 µg/mL: Inhibition (%) at 1 μg/mL, read-out: RSV B CPE % Inhibition; for inhibition at 0.1 µg/mL: Inhibition (%) at 0.1 μg/mL
Outline: as §1

[1] = Cell viability: resazurin assay; type: cell-based, human; details: human, HEp2 cells
Outline: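 HEp2 cells in 5% FBS DMEM exposed to compounds (0.5% DMSO final) for 5 days at 37 °C/5% CO2, then resazurin added for 6 h; fluorescence read at 545/590 nm. Percent viability loss calculated versus 0.5% DMSO vehicle, with increases shown as negative values; CC50 taken from concentration-response curves where appropriate.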

SMILES: C=C(C)c1cnc(N2CC3(CCOCC3)C2)c(C(=O)Nc2ccc(C(=O)N3CCc4cc(C(=O)Nc5c(F)cccc5F)sc4-c4ccccc43)cc2)c1 [Example 73, N-(2,6-difluorophenyl)-6-(4-(5-(prop-1-en-2-yl)-2-(7-oxa-2-azaspiro[3.5]nonan-2-yl)nicotinamido)benzoyl)-5,6-dihydro-4H-benzo[b]thieno[2,3-d]azepine-2-carboxamide]
- IC50 (RSV A2 strain): 2.6 nM
- inhibition at 0.01 µg/mL (RSV A2 strain): 84%
- IC50 (RSV B Washington strain): 14.8 nM
- inhibition at 1 µg/mL (RSV B Washington strain): 98%
- CC50 at 5 days [1]: > 13400 nM

SMILES: Cc1cccc(C#N)c1NC(=O)c1cc2c(s1)-c1ccccc1N(C(=O)c1ccc(NC(=O)c3cc4c(nc3N3CC5(CCOCC5)C3)CCC4)cc1)CC2 [Example 74, 6-(4-(2-(7-oxa-2-azaspiro[3.5]nonan-2-yl)-6,7-dihydro-5H-cyclopenta[b]pyridine-3-carboxamido)benzoyl)-N-(2-cyano-6-methylphenyl)-5,6-dihydro-4H-benzo[b]thieno[2,3-d]azepine-2-carboxamide]
- IC50 (RSV A2 strain): 0.88 nM
- inhibition at 0.01 µg/mL (RSV A2 strain): 100%
- IC50 (RSV B Washington strain): 3.8 nM
- inhibition at 1 µg/mL (RSV B Washington strain): 77%
- CC50 at 5 days [1]: > 13400 nM

SMILES: Cc1cccc(C#N)c1NC(=O)c1cc2c(s1)-c1ccccc1N(C(=O)c1ccc(NC(=O)c3cc4c(nc3N3CC5(CCOCC5)C3)CCC4)cc1F)CC2 [Example 77, 6-(4-(2-(7-oxa-2-azaspiro[3.5]nonan-2-yl)-6,7-dihydro-5H-cyclopenta[b]pyridine-3-carboxamido)-2-fluorobenzoyl)-N-(2-cyano-6-methylphenyl)-5,6-dihydro-4H-benzo[b]thieno [2,3-d]azepine-2-carboxamide]
- IC50 (RSV A2 strain): 4.9 nM
- inhibition at 0.01 µg/mL (RSV A2 strain): 94%
- IC50 (RSV B Washington strain): 19.2 nM
- inhibition at 1 µg/mL (RSV B Washington strain): 92%
- CC50 at 5 days [1]: > 13000 nM

SMILES: Cc1cccc(F)c1NC(=O)c1cc2c(s1)-c1ccccc1N(C(=O)c1ccc(NC(=O)c3cc4c(nc3N3CC5(CCOCC5)C3)CCC4)cc1F)CC2 [Example 78, 6-(4-(2-(7-oxa-2-azaspiro[3.5]nonan-2-yl)-6,7-dihydro-5H-cyclopenta[b]pyridine-3-carboxamido)-2-fluorobenzoyl)-N-(2-fluoro-6-methylphenyl)-5,6-dihydro-4H-benzo[b]thieno [2,3-d]azepine-2-carboxamide]
- IC50 (RSV A2 strain): 2.4 nM
- inhibition at 0.01 µg/mL (RSV A2 strain): 89%
- IC50 (RSV B Washington strain): 1.3 nM
- inhibition at 1 µg/mL (RSV B Washington strain): 94%
- CC50 at 5 days [1]: > 13200 nM

SMILES: O=C(Nc1c(F)cccc1F)c1cc2c(s1)-c1ccccc1N(C(=O)c1ccc(NC(=O)c3cc4c(nc3N3CC5(CCOCC5)C3)CCC4)cc1F)CC2 [Example 79, 6-(4-(2-(7-oxa-2-azaspiro[3.5]nonan-2-yl)-6,7-dihydro-5H-cyclopenta[b]pyridine-3-carboxamido)-2-fluorobenzoyl)-N-(2,6-difluorophenyl)-5,6-dihydro-4H-benzo[b]thieno[2,3-d]azepine-2-carboxamide]
- IC50 (RSV A2 strain): 2.3 nM
- inhibition at 0.01 µg/mL (RSV A2 strain): 92%
- IC50 (RSV B Washington strain): 1.8 nM
- inhibition at 1 µg/mL (RSV B Washington strain): 93%
- CC50 at 5 days [1]: > 13100 nM

SMILES: O=C(Nc1c(F)cccc1Cl)c1cc2c(s1)-c1ccccc1N(C(=O)c1ccc(NC(=O)c3cc4c(nc3N3CC5(CCOCC5)C3)CCC4)cc1F)CC2 [Example 80, 6-(4-(2-(7-oxa-2-azaspiro[3.5]nonan-2-yl)-6,7-dihydro-5H-cyclopenta[b]pyridine-3-carboxamido)-2-fluorobenzoyl)-N-(2-chloro-6-fluorophenyl)-5,6-dihydro-4H-benzo[b]thieno [2,3-d]azepine-2-carboxamide]
- IC50 (RSV A2 strain): 2 nM
- inhibition at 0.01 µg/mL (RSV A2 strain): 91%
- IC50 (RSV B Washington strain): 1.6 nM
- inhibition at 1 µg/mL (RSV B Washington strain): 93%
- CC50 at 5 days [1]: > 12800 nM

SMILES: O=C(Nc1c(F)cccc1F)c1cc2c(s1)-c1ccccc1N(C(=O)c1ccc(NC(=O)c3cc4c(nc3N3CC5(CCOCC5)C3)CCOC4)cc1)CC2 [Example 82, N-(4-(2-((2,6-difluorophenyl)carbamoyl)-5,6-dihydro-4H-benzo[b]thieno[2,3-d]azepine-6-carbonyl)phenyl)-2-(7-oxa-2-azaspiro[3.5]nonan-2-yl)-7,8-dihydro-5H-pyrano[4,3-b] pyridine-3-carboxamide]
- IC50 (RSV A2 strain): 0.78 nM
- inhibition at 0.01 µg/mL (RSV A2 strain): 97%
- IC50 (RSV B Washington strain): 7.6 nM
- inhibition at 0.1 µg/mL (RSV B Washington strain): 100%
- CC50 at 5 days [1]: > 13100 nM

SMILES: O=C(Nc1c(F)cccc1Cl)c1cc2c(s1)-c1ccccc1N(C(=O)c1ccc(NC(=O)c3cc4c(nc3N3CC5(CCOCC5)C3)CCOC4)cc1)CC2 [Example 83, N-(4-(2-((2-chloro-6-fluorophenyl)carbamoyl)-5,6-di-hydro-4H-benzo[b]thieno[2,3-d]azepine-6-carbonyl)phenyl)-2-(7-oxa-2-azaspiro[3.5]nonan-2-yl)-7,8-dihydro-5H-pyrano [4,3-b]pyridine-3-carboxamide]
- IC50 (RSV A2 strain): 0.15 nM
- inhibition at 0.01 µg/mL (RSV A2 strain): 100%
- IC50 (RSV B Washington strain): 6.2 nM
- inhibition at 1 µg/mL (RSV B Washington strain): 95%
- CC50 at 5 days [1]: > 12800 nM

SMILES: O=C(Nc1ccccc1F)c1cc2c(s1)-c1ccccc1N(C(=O)c1ccc(NC(=O)c3cc4ccccc4nc3N3CC4(CCOCC4)C3)cc1)CC2 [Example 84, 6-(4-(2-(7-oxa-2-azaspiro[3.5]nonan-2-yl)quinoline-3-carboxamido)benzoyl)-N-(2-fluorophenyl)-5,6-dihydro-4H-benzo[b]thieno[2,3-d]azepine-2-carboxamide]
- IC50 (RSV A2 strain): 0.13 nM
- inhibition at 0.1 µg/mL (RSV A2 strain): 97%
- IC50 (RSV B Washington strain): 11 nM
- inhibition at 1 µg/mL (RSV B Washington strain): 68%
- CC50 at 5 days [1]: > 13600 nM

SMILES: O=C(Nc1ccc(F)cc1F)c1cc2c(s1)-c1ccccc1N(C(=O)c1ccc(NC(=O)c3cc4ccccc4nc3N3CC4(CCOCC4)C3)cc1)CC2 [Example 85, 6-(4-(2-(7-oxa-2-azaspiro[3.5]nonan-2-yl)quinoline-3-carboxamido)benzoyl)-N-(2,4-difluorophenyl)-5,6-dihydro-4H-benzo[b]thieno[2,3-d]azepine-2-carboxamide]
- IC50 (RSV A2 strain): 3.5 nM
- inhibition at 0.1 µg/mL (RSV A2 strain): 95%
- IC50 (RSV B Washington strain): 13.5 nM
- inhibition at 1 µg/mL (RSV B Washington strain): 91%
- CC50 at 5 days [1]: > 13200 nM

SMILES: O=C(Nc1c(F)cccc1F)c1cc2c(s1)-c1ccccc1N(C(=O)c1ccc(NC(=O)c3cc4ccccc4nc3N3CC4(CCOCC4)C3)cc1)CC2 [Example 86, 6-(4-(2-(7-oxa-2-azaspiro[3.5]nonan-2-yl)quinoline-3-carboxamido)benzoyl)-N-(2,6-difluorophenyl)-5,6-dihydro-4H-benzo[b]thieno[2,3-d]azepine-2-carboxamide]
- IC50 (RSV A2 strain): 0.17 nM
- inhibition at 0.01 µg/mL (RSV A2 strain): 85%
- IC50 (RSV B Washington strain): 23 nM
- inhibition at 0.1 µg/mL (RSV B Washington strain): 100%
- CC50 at 5 days [1]: > 13200 nM

SMILES: O=C(Nc1c(F)cc(F)cc1F)c1cc2c(s1)-c1ccccc1N(C(=O)c1ccc(NC(=O)c3cc4ccccc4nc3N3CC4(CCOCC4)C3)cc1)CC2 [Example 88, 6-(4-(2-(7-oxa-2-azaspiro[3.5]nonan-2-yl)quinoline-3-carboxamido)benzoyl)-N-(2,4,6-trifluorophenyl)-5,6-di-hydro-4H-benzo[b]thieno[2,3-d]azepine-2-carboxamide]
- IC50 (RSV A2 strain): 0.58 nM
- inhibition at 0.01 µg/mL (RSV A2 strain): 93%
- IC50 (RSV B Washington strain): 3 nM
- inhibition at 1 µg/mL (RSV B Washington strain): 93%
- CC50 at 5 days [1]: > 12900 nM

SMILES: Cc1cccc(F)c1NC(=O)c1cc2c(s1)-c1ccccc1N(C(=O)c1ccc(NC(=O)c3cc4sccc4nc3N3CC4(CCOCC4)C3)cc1)CC2 [Example 89, 6-(4-(5-(7-oxa-2-azaspiro[3.5]nonan-2-yl)thieno[3,2-b]pyridine-6-carboxamido)benzoyl)-N-(2-fluoro-6-methyl-phenyl)-5,6-dihydro-4H-benzo[b]thieno[2,3-d]azepine-2-carboxamide]
- IC50 (RSV A2 strain): 0.5 nM
- inhibition at 0.01 µg/mL (RSV A2 strain): 100%
- IC50 (RSV B Washington strain): 19.4 nM
- inhibition at 0.1 µg/mL (RSV B Washington strain): 100%
- CC50 at 5 days [1]: > 13200 nM

SMILES: Cc1cnc(N2CC3(COC3)C2)c(C(=O)Nc2ccc(C(=O)N3CCc4cc(C(=O)Nc5c(C)cccc5F)sc4-c4ccccc43)cc2)c1 [Example 90, N-(2-fluoro-6-methylphenyl)-6-(4-(5-methyl-2-(2-oxa-6-azaspiro[3.3]heptan-6-yl)nicotinamido)benzoyl)-5,6-dihydro-4H-benzo[b]thieno[2,3-d]azepine-2-carboxamide]
- IC50 (RSV A2 strain): 1.8 nM
- inhibition at 0.01 µg/mL (RSV A2 strain): 100%
- IC50 (RSV B Washington strain): 508 nM
- inhibition at 1 µg/mL (RSV B Washington strain): 99%
- CC50 at 5 days [1]: > 14500 nM

SMILES: Cc1cnc(N2CCC3(CC2)COC3)c(C(=O)Nc2ccc(C(=O)N3CCc4cc(C(=O)Nc5c(C)cccc5F)sc4-c4ccccc43)cc2)c1 [Example 91, N-(2-fluoro-6-methylphenyl)-6-(4-(5-methyl-2-(2-oxa-7-azaspiro[3.5]nonan-7-yl)nicotinamido)benzoyl)-5,6-dihydro-4H-benzo[b]thieno[2,3-d]azepine-2-carboxamide]
- IC50 (RSV A2 strain): 1.3 nM
- inhibition at 0.01 µg/mL (RSV A2 strain): 100%
- IC50 (RSV B Washington strain): 393 nM
- inhibition at 1 µg/mL (RSV B Washington strain): 100%
- CC50 at 5 days [1]: > 14000 nM

SMILES: Cc1cnc(N2CCC3(CC2)COC3)c(C(=O)Nc2ccc(C(=O)N3CCc4cc(C(=O)Nc5c(F)cccc5F)sc4-c4ccccc43)cc2)c1 [Example 92, N-(2,6-difluorophenyl)-6-(4-(5-methyl-2-(2-oxa-7-aza-spiro[3.5]nonan-7-yl)nicotinamido)benzoyl)-5,6-dihydro-4H-benzo[b]thieno[2,3-d]azepine-2-carboxamide]
- IC50 (RSV A2 strain): 0.17 nM
- inhibition at 0.01 µg/mL (RSV A2 strain): 93%
- IC50 (RSV B Washington strain): 60.8 nM
- inhibition at 1 µg/mL (RSV B Washington strain): 100%
- CC50 at 5 days [1]: > 13900 nM

From patent US10189863B2, “5,6-dihydro-4H-benzo[b]thieno-[2,3-d]azepine derivatives” (PULMOCIDE LIMITED, priority 2014, dated 2019)
